Data: patent US9266922B2, “Antigen peptide and uses thereof” (priority 2011, dated 2016)
Like-named read-outs stand apart in the source and are kept apart here. Residues, ends and D or L forms follow the SMILES beside them.

What was measured:
[1] = target: T1, HLA-A*0201 (Homo sapiens, UniProt P04439, D140Y/D185E/D98H/E176V/E277Q/G131W/G231S/I119V/I121R/I166T/I218V/L300P/L318F/N151K/N90K/P208A/P217A/Q86G/Q94H/R138H/R169H/T345S); experiment: iScore calculation (iTOPIA system software); settings: multiparametric score of binding, off-rate and affinity
[2] = target: T2, HLA A*0201 on CEM.T2 cell line (Homo sapiens, UniProt P04439, D140Y/D185E/D98H/E176V/E277Q/G131W/G231S/I119V/I121R/I166T/I218V/L300P/L318F/N151K/N90K/P208A/P217A/Q86G/Q94H/R138H/R169H/T345S); experiment: Cellular binding assay, HLA stabilization on CEM.T2 cells; assay type: cell-based; settings: for CEM.T2 % Binding: 100 μM peptide, 37° C. for 4 h, FACS anti HLA-A2, relative to HBV positive control peptide
T2 construct: This cell line expresses HLA A*0201 but is deficient for TAP transporter; endogenous in cells; host or cells: CEM.T2 (T2) cell line
Procedure: The CEM.T2 cell line (T2) is defective in the processing of proteins for presentation by MHC class 1 molecules. This cell line expresses HLA A*0201 but is deficient for TAP transporter. T2 is classically used to assess the Peptide/HLA-A*0201 Complex Stability[H. W. Nijman et al., 1993]
For HLA-A2*0201 stabilization, T2 cells (2×10^5/well) were incubated in serum-free RPMI (Gibco®-France) with 100 μM of selected peptide, at 37° C. for 4 h. Cells were washed two times with PBS supplemented with 1% BSA and stained with fluorescein isothiocyanate-conjugated anti HLA-A2 (Clone BB7.2) (BD Bioscience Pharmingen-France-) at 4° C. for 45 min. After 3 washes, cells were fixed in PBS supplemented with 2% paraformaldehyde and analyzed by FACS (FACScan, BD Bioscience). The percentage of peptide binding was calculated as follows: % Binding={(MFI peptide sample−MFI Neg control)/(MFI Pos control−MFI Neg control)}×100
Negative control was done without peptide.

[3] = target: T1, HLA-A*0201; experiment: biochemical; assay type: binding
[4] = target: T2, HLA A*0201 on CEM.T2 cell line; experiment: Cellular dissociation assay on CEM.T2 cells; assay type: cell-based; settings: after Brefeldin A 1 h and 3 h in serum-free RPMI at 37° C. (4 h)
Procedure: Cellular Dissociation Assay
After HLA-A2*0201 stabilization with peptides at 37° C. for 4 h, T2 cells were incubated for 1 h, in serum-free RPMI containing Brefeldin A (10 μg/ml), an inhibitor of the transport of secretory and lysosomal proteins [G. J. Strous et al., 1993]. After 3 washes, T2 cells were incubated for 3 h in serum-free RPMI at 37° C. Binding was then measured by FACS and after 4 h incubation. Percentage of Residual Binding (% RB) was calculated as follows: […]

[5] = target: T1, HLA-A*0201; experiment: iTOPIA EDS MHC peptide binding assay; settings: HLA-A*0201 monomer, relative to positive control peptide, 21° C. for 18 h
Text: MHC peptide binding assay using iTOPIA EDS
Microtiter 96 well plates containing HLA class I MHC monomer loaded with the human β2-microglobulin and a “placeholder” peptide were used to evaluate peptide binding, affinity, and off-rate.
The 502 nectin4 nonapeptides were first evaluated for their ability to bind to each MHC molecule in the peptide binding assay. In this assay, the placeholder peptides were stripped from the MHC class I monomer complexes coated on plastic, which leaves the MHC class I heavy chain available as a binding partner for candidate peptides in the presence of human β2-microglobulin.
Peptide binding was performed at 21° C. for 18 h. Revelation was done using an anti HLA-ABC-FITC mAb that binds to refolded MHC complex conformation. The relative fluorescent intensity was read using a fluorimeter (Molecular Devices, SpectraMax Gemini, Sunnyvale, Calif., USA).
Peptides with a binding>30% of the positive control peptide were selected as “binder” and subsequently analyzed for affinity (ED50) and off-rate (T1/2).

[6] = peptide concentration giving 50% of optimal binding, 10^−4 to 10^−9 M, 21° C. for 18 h, read-out: Affinity (ED50)

Row | Compound | iScore [1] | HLA-A*0201 class I level on T2 cells ([2]; flow cytometry, FIG. 3A and 3B) | EC50 [3, 6] | CEM.T2 % Residual Binding [4] | CEM.T2 % Binding [2] | % Binding [5] | EC50 ([3]; FIG. 2A, peptide concentration 10^−4 to 10^−9 M, read-out: estimated dose to reach 50% maximal binding (ED50))
1 | 122: nectin4 nonapeptide with a low iScore; the number represents where the peptide starts in the protein sequence (EGEYECRVS; UniProt Q96NY8 122-130, looked up, fragment) [Peptide 122] | low | does not increase HLA level on T2 cells | – | – | – | – | –
2 | CC(C)C[C@H](NC(=O)[C@H](CC(C)C)NC(=O)[C@H](CC(C)C)NC(=O)[C@@H](N)CC(C)C)C(=O)N[C@@H](C)C(=O)N[C@@H](CO)C(=O)N[C@@H](Cc1ccccc1)C(=O)N[C@H](C(=O)NCC(=O)O)[C@@H](C)O [Peptide 19] (H-LLLLASFTG-OH; N-terminus and C-terminus assumed) | 0.659 | – | 60 nM | 0% | 17% | 75% | –
3 | CC(C)[C@H](NC(=O)[C@@H](NC(=O)[C@@H](NC(=O)[C@@H](NC(=O)[C@@H](NC(=O)[C@H](CC(=O)O)NC(=O)[C@H](CO)NC(=O)[C@@H](NC(=O)CN)[C@@H](C)O)C(C)C)C(C)C)[C@@H](C)O)C(C)C)C(=O)O [Peptide 35] (H-GTSDVVTVV-OH; N-terminus and C-terminus assumed) | 0.539 | – | 300 nM | 0% | 60% | 63% | –
4 | CC(C)C[C@H](NC(=O)CNC(=O)[C@H](Cc1ccc(O)cc1)NC(=O)[C@H](CCCCN)NC(=O)[C@H](CO)NC(=O)[C@H](Cc1c[nH]cn1)NC(=O)[C@H](CC(C)C)NC(=O)[C@H](CC(C)C)NC(=O)[C@H](C)N)C(=O)O [Peptide 80] (H-ALLHSKYGL-OH; N-terminus and C-terminus assumed) | 0.815 | – | 1000 nM | – | – | 87% | ~100 nM
5 | CC(C)C[C@H](NC(=O)[C@H](CCCNC(=N)N)NC(=O)[C@H](C)NC(=O)[C@H](CCC(N)=O)NC(=O)[C@@H](N)Cc1ccccc1)C(=O)N[C@@H](CCCNC(=N)N)C(=O)N[C@@H](CC(C)C)C(=O)N[C@@H](CCCNC(=N)N)C(=O)N[C@H](C(=O)O)C(C)C [Peptide 137] (H-FQARLRLRV-OH; N-terminus and C-terminus assumed) | 0.66 | – | – | 72% | 30% | 69% | –
6 | CC(C)C[C@H](NC(=O)[C@H](Cc1c[nH]cn1)NC(=O)[C@H](Cc1ccccc1)NC(=O)[C@H](CCC(=O)O)NC(=O)[C@H](CO)NC(=O)[C@@H](NC(=O)[C@@H](NC(=O)[C@H](C)N)C(C)C)[C@@H](C)O)C(=O)N[C@H](C(=O)O)C(C)C [Peptide 203] (H-AVTSEFHLV-OH; N-terminus and C-terminus assumed) | 0.533 | – | 400 nM | 0% | 48% | 64% | –
7 | CSCC[C@H](NC(=O)[C@@H](N)CO)C(=O)N[C@@H](CC(N)=O)C(=O)NCC(=O)N[C@@H](CCC(N)=O)C(=O)N1CCC[C@H]1C(=O)N[C@@H](CC(C)C)C(=O)N[C@H](C(=O)N[C@@H](CS)C(=O)O)[C@@H](C)O [Peptide 215] (H-SMNGQPLTC-OH; N-terminus and C-terminus assumed) | 0.689 | – | 700 nM | 0% | 21% | 81% | –
8 | CC[C@H](C)[C@H](NC(=O)[C@@H](N)Cc1c[nH]cn1)C(=O)N[C@@H](CC(C)C)C(=O)N[C@@H](Cc1c[nH]cn1)C(=O)N[C@H](C(=O)N[C@@H](CO)C(=O)N[C@@H](Cc1ccccc1)C(=O)N[C@@H](CC(C)C)C(=O)N[C@@H](C)C(=O)O)C(C)C [Peptide 238] (H-HILHVSFLA-OH; N-terminus and C-terminus assumed) | 1.426 | – | 60 nM | 66% | 37% | 87% | –
9 | CC[C@H](C)[C@H](N)C(=O)N[C@@H](CC(C)C)C(=O)N[C@@H](Cc1c[nH]cn1)C(=O)N[C@H](C(=O)N[C@@H](CO)C(=O)N[C@@H](Cc1ccccc1)C(=O)N[C@@H](CC(C)C)C(=O)N[C@@H](C)C(=O)N[C@@H](CCC(=O)O)C(=O)O)C(C)C [Peptide 239] (H-ILHVSFLAE-OH; N-terminus and C-terminus assumed) | 0.51 | – | 200 nM | 0% | 10% | 61% | –
10 | CC(C)C[C@H](NC(=O)[C@@H](N)Cc1ccccc1)C(=O)N[C@@H](C)C(=O)N[C@@H](CCC(=O)O)C(=O)N[C@@H](C)C(=O)N[C@@H](CO)C(=O)N[C@H](C(=O)N[C@@H](CCCNC(=N)N)C(=O)NCC(=O)O)C(C)C [Peptide 244] (H-FLAEASVRG-OH; N-terminus and C-terminus assumed) | 0.533 | – | 700 nM | 0% | 12% | 78% | –
11 | CC[C@H](C)[C@H](NC(=O)[C@H](Cc1c[nH]cn1)NC(=O)[C@H](Cc1c[nH]c2ccccc12)NC(=O)[C@H](CC(C)C)NC(=O)[C@H](CC(N)=O)NC(=O)[C@H](CCC(N)=O)NC(=O)[C@@H](N)CC(=O)O)C(=O)NCC(=O)N[C@@H](CCCNC(=N)N)C(=O)O [Peptide 255] | 0.539 | – | 500 nM | 0% | 6% | 62% | –
12 | CSCC[C@H](NC(=O)[C@H](C)N)C(=O)N[C@@H](CC(C)C)C(=O)N[C@@H](CCCCN)C(=O)N[C@@H](CS)C(=O)N[C@@H](CC(C)C)C(=O)N[C@@H](CO)C(=O)N[C@@H](CCC(=O)O)C(=O)NCC(=O)O [Peptide 266] (H-AMLKCLSEG-OH; N-terminus and C-terminus assumed) | 0.667 | – | 700 nM | 39% | 31% | 74% | –
13 | CC[C@H](C)[C@H](NC(=O)[C@@H](NC(=O)CNC(=O)[C@@H](NC(=O)[C@@H](NC(=O)[C@@H](N)C(C)C)C(C)C)C(C)C)C(C)C)C(=O)N[C@@H](C)C(=O)N[C@@H](C)C(=O)N[C@@H](CC(C)C)C(=O)O [Peptide 351, VVVGVIAAL] (H-VVVGVIAAL-OH; N-terminus and C-terminus assumed) | 0.784 | – | 30 nM | – | – | 58% | –
